In US4109000A, “5-Benzylpicolinic acid derivatives” (Nippon Shinyaku Co., Ltd., priority 1975, dated 1978):
Converted amounts (≈) assume the structure as drawn. Read-outs that look alike come from different tables or passages of the source.

Key:
[1] = tested on: spontaneously hypertensive rats; assay: percent decrease in blood pressure in spontaneously hypertensive rats, oral; assay type: in vivo, spontaneously hypertensive rats (male); conditions: for inhibition in vivo at 50 mg/kg: Rattus norvegicus, po, read-out: % Decrease in blood pressure, 5hrs.; for % Decrease in blood pressure, 1hr.: after 1 hr; for % Decrease in blood pressure, 2hrs.: after 2 hrs; for % Decrease in blood pressure, 3hrs.: after 3 hrs
Method: (§1) The pharmacological action of the product of the present invention can be conventionally observed as follows: 50 mg/kg of a sample was administered orally to spontaneously hypertensive rats (male 20-40 weeks age) and percent decrease in blood pressure after 1, 2, 3 and 5 hours was determined, using the known fusaric acid as a reference. Acute toxicity of the compounds was determined by introperitoneal administration of the samples to ddY male mice (6 weeks age), followed by calculation of the values after observation for one week.

[2] = acute toxicity (LD50), intraperitoneal, ddY male mice; conditions: mouse, in vivo, ip, ddY male mice (6 weeks age)
Method: as §1, with “week. The results are as follows:” for “week.”

[3] = target: T1, dopamine-β-hydroxylase (Bos taurus, UniProt P15101); assay: dopamine-β-hydroxylase inhibitory activity; assay type: biochemical
T1 sequence (P15101 1-610): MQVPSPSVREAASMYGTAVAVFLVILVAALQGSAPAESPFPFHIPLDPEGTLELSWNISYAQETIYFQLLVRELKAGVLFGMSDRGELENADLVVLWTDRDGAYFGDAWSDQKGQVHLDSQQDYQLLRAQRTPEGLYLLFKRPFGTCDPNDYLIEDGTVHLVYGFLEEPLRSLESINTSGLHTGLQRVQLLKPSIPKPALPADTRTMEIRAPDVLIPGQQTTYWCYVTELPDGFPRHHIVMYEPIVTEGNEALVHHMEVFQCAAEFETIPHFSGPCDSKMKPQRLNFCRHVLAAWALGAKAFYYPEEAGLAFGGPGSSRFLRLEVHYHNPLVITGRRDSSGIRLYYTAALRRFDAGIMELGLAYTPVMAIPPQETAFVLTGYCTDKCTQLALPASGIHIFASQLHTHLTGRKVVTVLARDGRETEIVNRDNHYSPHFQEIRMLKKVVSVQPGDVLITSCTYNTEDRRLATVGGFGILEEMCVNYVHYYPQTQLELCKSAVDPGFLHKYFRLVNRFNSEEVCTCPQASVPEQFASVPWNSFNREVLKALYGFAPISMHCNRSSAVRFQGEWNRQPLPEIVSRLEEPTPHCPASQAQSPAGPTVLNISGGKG

[4] = 50 mg/kg orally, spontaneously hypertensive rats (male 20-40 weeks), after 5 hrs
[5] = intraperitoneal, observation for one week (first table), read-out: LD50
[6] = observation for one week (second table), read-out: LD50 (i.p.)
[7] = 50 mg/kg orally, spontaneously hypertensive rats (male 20-40 weeks)

| SMILES | inhibition in vivo at 50 mg/kg [1, 4] | LD50 at 168 h [2, 5] | LD50 at 168 h [2, 6] | IC50 [3] | % Decrease in blood pressure, 1hr. [1, 7] | % Decrease in blood pressure, 2hrs. [1, 7] | % Decrease in blood pressure, 3hrs. [1, 7] | further results |
| --- | --- | --- | --- | --- | --- | --- | --- | --- |
| COC(=O)c1ccc(Cc2ccccc2)cn1 [Methyl 5-benzylpicolinate] | 48.8% | 88 mg/kg |  |  |  |  |  |  |
| CCOC(=O)c1ccc(Cc2ccccc2)cn1.Cl [Ethyl 5-benzylpicolinate (Hydrochloride), ethyl 5-benzylpicolinate hydrochloride] | 32.4% | 140 mg/kg |  |  |  |  |  |  |
| CCOC(=O)c1ccc(Cc2ccc(O)cc2)cn1 [Ethyl 5-(4-hydroxybenzyl)-picolinate, ethyl 5-(4-hydroxybenzyl)picolinate] |  |  | 594 mg/kg | 27.6 nM |  |  |  |  |
| O=C(NCc1ccccc1)c1ccc(Cc2ccccc2)cn1 [5-Benzylpicolinic acid N-benzylamide] | 27.1% | 707 mg/kg |  |  |  |  |  |  |
| O=C(O)c1ccc(Cc2ccc(O)c(O)c2)cn1 [5-(3,4-Dihydroxybenzyl)-picolinic Acid, 5-(3,4-dihydroxybenzyl)picolinic acid] |  |  | 561 mg/kg | 35.9 nM |  |  |  |  |
| O=C(O)c1ccc(Cc2ccc(Cl)cc2)cn1 [5-(4-Chlorobenzyl)-picolinic acid, 5-(4-Chlorobenzyl)picolinic acid] | 50.3% | 120 mg/kg |  |  | 26.4% | 42.1% | 48.6% |  |
| Nc1ccc(Cc2ccc(C(=O)O)nc2)cc1 [5-(4-Aminobenzyl)-picolinic Acid] |  |  |  | 333 nM |  |  |  |  |
| COc1ccc(Cc2ccc(C(=O)O)nc2)cc1 [5-(4-Methoxybenzyl)-picolinic acid, 5-(4-methoxybenzyl)picolinic acid] | 21.9% | 132 mg/kg |  |  | 24.8% | 28.1% | 23.4% |  |
| O=C(O)c1ccccn1 [Picolinic Acid] |  |  |  | 8120 nM |  |  |  |  |
| COc1ccccc1Cc1ccc(C(=O)O)nc1 [5-(2-Methoxybenzyl)-picolinie acid, 5-(2-Methoxybenzyl)picolinic acid] | 25.5% | 177 mg/kg |  |  | 25.9% | 26.9% | 26.0% |  |
| O=C(O)c1ccc(Cc2ccc(O)cc2)cn1 [5-(4-Hydroxybenzyl)-picolinic Acid, 5-(4-hydroxybenzyl)picolinic acid] |  |  | 193 mg/kg |  |  |  |  | ID50 ([3]; dopamine-β-hydroxylase inhibition): 8.9 ng/mL (≈ 0.0388 µM) |
| CCCCc1ccc(C(=O)O)nc1 [Fusaric acid, reference compound] |  | 80 mg/kg |  | 83.7 nM | 15.6% | 21.3% | 16.5% | inhibition in vivo at 50 mg/kg ([1]; 5 h): 21% |
| O=C(O)c1ccc(Cc2ccccc2)cn1 [5-Benzylpicolinic acid, 5-benzylpicolinic acid] | 29.5% | 138 mg/kg |  |  | 12.7% | 19.0% | 24.9% |  |
| O=C(O)c1ccc(Cc2ccc([N+](=O)[O-])cc2)cn1 [5-(4-Nitrobenzyl)-picolinic acid, 5-(4-nitrobenzyl)picolinic acid] | 39.8% | 177 mg/kg |  |  |  |  |  |  |
| O=C(O)c1ccc(Cc2ccccc2O)cn1 [5-(2-Hydroxybenzyl)-picolinic Acid] |  |  | 354 mg/kg | 91.6 nM |  |  |  |  |
| COC(=O)c1ccc(Cc2ccc(O)cc2)cn1 [Methyl 5-(4-hydroxybenzyl)-picolinate, methyl 5-(4-hydroxybenzyl)-picolinate] |  |  | 1000 mg/kg | 28.8 nM |  |  |  |  |
